Test results from patent US8530621B2, “Combined preparation of a thiazide diuretic and a loop diuretic” (The Regents of the University of California, priority 2007, dated 2013).
Residue numbers refer to the chain shown, from its start. Names may count otherwise. Non-standard residues stand in square brackets, D forms with d. Residues, ends and D or L forms follow the SMILES beside them. No end group written: not given here. pY = N[C@@H](Cc1ccc(OP(=O)(O)O)cc1)C(=O)O

Assays:
[1] = target: T1, talin F3 (Mus musculus, UniProt P26039); assay: 1H-15N HSQC NMR titration of talin F3 with peptides; type: binding; settings: for perturbation of contact residues in the MP region: mutant chimeric peptides added to wild-type talin F3, MD site binding unchanged
T1 construct: labeled talin F3 domain was expressed and purified as described previously (de Pereda et al., 2005); made in house
T1 sequence (P26039 309-405 limits assumed): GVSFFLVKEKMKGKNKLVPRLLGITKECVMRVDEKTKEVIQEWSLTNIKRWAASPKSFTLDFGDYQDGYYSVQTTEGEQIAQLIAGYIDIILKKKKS
Method: (§1) Talin F3 L325R and Q381V mutants were titrated with the original β3/PIPKIγ chimera, while the effect of peptide mutations (F727A and F730A) was assessed using wild-type talin F3.
We set out to obtain a structural explanation for the unusual ability of the talin PTB domain to activate integrins. An initial exploration of the interactions was carried out by adding various tail-derived β3-integrin peptides to the F3 sub-domain of talin, while monitoring the chemical shift perturbations in ^1H-^15N HSQC NMR spectra. The peptide sequences and the nomenclature used are set out in FIG. 1A. The MP peptide corresponds to the N-terminal region of the cytoplasmic β-tail. A peptide comprised of the β-tail region previously visualized in the crystal structure (Garcia-Alvarez et al., 2003), is denoted MD; this peptide primarily causes chemical shift perturbations in strand S5 (de Pereda et al., 2005).
(§2) ^1H-^15N-HSQC titrations were performed as previously described (de Pereda et al., 2005). Weighted shifts (Δδ(HN,N)) were calculated using the equation: Δδ(HN,N)=((ΔδHNWHN)^2+(ΔδNWN)^2)^1/2, where WHN and WN are weighting factors for the HN and N shifts respectively (WHN=1, WN=0.154) (Ayed et al., 2001) and Δδ=δbound−δfree. Talin F3 domains in complex with slow-exchanging peptides, as well as mutant F3 domains, were assigned by correlation to the wild-type talin F3 assignments (de Pereda et al., 2005) and confirmed using 3D gradient-enhanced [^1H-^15N]-NOESY-HSQC (τm=100 ms) spectra alone, or in combination with [^1H-^15N]-TOCSY-HSQC (τm=70 ms) spectra. ^13CO, ^13Cα and ^13Cβ shifts were obtained using a series of 2D ^1H-^15N-^13C experiments (Bersch et al., 2003). Bound peptide shifts were obtained using U—^15N,^2H F3 and unlabeled chimeric peptide (1.3:1). Both bound and unbound chimeric peptide shifts were assigned using 2D NOESY, TOCSY and COSY spectra. DOK PTB domain assignments were obtained previously (unpublished).

[2] = Solubility of peptide at the concentrations used for NMR; type: physicochemical
Source text: NMR studies of the interaction with full-length β3 cytoplasmic tail were more challenging. The off-rates of the complex correspond to an ‘intermediate exchange’ regime, with peaks broadening and disappearing rather than changing position. It was, however, possible to define perturbed residues by plotting the percentage decrease in peak height upon addition of the peptide (FIGS. 1D and 8). The perturbed residues are essentially the sum of those affected by the MD peptide and the MP peptide (FIGS. 1 and 8). The β3 tail/talin F3 interactions can thus be considered in two parts, one corresponding to the previously defined interaction at the MD-site, the other corresponding to the MP-site. […] This, together with exchange broadening of lines, made the β3 tail an unsuitable ligand for studying the structure of the talin-integrin complex by NMR at atomic resolution.

[3] = test system: β3/PIPKIγ chimera; assay: 1H-15N HSQC NMR titration of talin F3 mutants with chimeric peptide; settings: talin F3 mutants titrated with the original β3/PIPKIγ chimera; MD site binding unchanged
β3/PIPKIγ chimera, sequence (as listed by the source, change not shown): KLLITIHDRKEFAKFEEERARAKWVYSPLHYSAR
Method: as §1
Mutations to the contact residues in talin F3 (L325R, S365D, S379R, or Q381V) were also made to see if they disrupted the F3/MP interaction.
as §2

[4] = target: T2, Talin F3 W359A (Mus musculus, UniProt P26039, W359A); assay: Isothermal titration calorimetry, chimeric peptide binding to talin F3 mutant; settings: ITC, relative to wild type talin F3
T2 construct: injected into the cell containing wildtype or mutant talin F3 domain; made in house
T2 sequence (P26039 309-405 W359A limits assumed): as the sequence (P26039 309-405 limits assumed) above, with W51A counted along it
Method: Peptide concentrations were typically at 150 to 300 μM while protein concentrations ranged from 25 to 50 μM. For the W359A mutant, the protein concentration was 50 μM and the peptide concentration was 1 mM. Prior to ITC titrations, the peptides and proteins were in buffer consisting of 200 mM Tris, 300 mM NaCl, pH 7.5. All experiments were conducted at 23 degrees Celsius. […] The bottom panel is the binding curve, calculated using the software program Origin.
Thermodynamic parameters for the binding of WT and mutant talin F3 to the β3 chimeric peptides were measured using isothermal titration calorimetry (Table 2, FIG. 12). In general, mutations that disrupt the MP site, either in the β-tail or talin F3, have relatively little effect on the Kd values (Table 2). This probably arises because of a balance between enthalpy gain and entropy loss, consistent with stabilization of the MP helix on talin binding in the wild-type but not mutant structures. In sharp contrast, the talin (W359A) mutant, which inhibits binding of the MD-site of the β3 tail, reduced the affinity ˜1000 fold, similar to the effect of mutations in the NPxY region of the integrin tail, which abrogate MD binding (Ulmer et al., 2003).
Isothermal titration calorimetry (ITC) was performed on a VP-ITC calorimeter (Microcal, Northampton, Mass.). […] Experimental data were analyzed using Microcal Origin software.

For `CC[C@H](C)[C@H](NC(=O)[C@H](CC(C)C)NC(=O)[C@H](CC(C)C)NC(=O)[C@H](CCCCN)NC(=O)[C@@H](N)CCCCN)C(=O)N[C@H](C(=O)N[C@H](C(=O)N[C@@H](Cc1c[nH]cn1)C(=O)N[C@@H](CC(=O)O)C(=O)N[C@@H](CCCNC(=N)N)C(=O)N[C@@H](CCCCN)C(=O)N[C@@H](CCC(=O)O)C(=O)N[C@@H](C)C(=O)N[C@@H](C)C(=O)N[C@@H](CCCCN)C(=O)N[C@@H](Cc1ccccc1)C(=O)N[C@@H](CCC(=O)O)C(=O)N[C@@H](CCC(=O)O)C(=O)N[C@@H](CCC(=O)O)C(=O)N[C@@H](CCCNC(=N)N)C(=O)N[C@@H](C)C(=O)N[C@@H](CCCNC(=N)N)C(=O)N[C@@H](C)C(=O)N[C@@H](CCCCN)C(=O)N[C@@H](Cc1c[nH]c2ccccc12)C(=O)N[C@H](C(=O)N[C@@H](Cc1ccc(OP(=O)(O)O)cc1)C(=O)N[C@@H](CO)C(=O)N1CCC[C@H]1C(=O)N[C@@H](CC(C)C)C(=O)N[C@@H](Cc1c[nH]cn1)C(=O)N[C@@H](Cc1ccc(O)cc1)C(=O)N[C@@H](CO)C(=O)N[C@@H](C)C(=O)N[C@@H](CCCNC(=N)N)C(=O)O)C(C)C)[C@@H](C)CC)[C@@H](C)O` [β3 chimera F727A] (H-KKLLITIHDRKEAAKFEEERARAKWV[pY]SPLHYSAR-OH; N-terminus and C-terminus assumed), which “perturbation of contact residues in the MP region” value (“perturbation of contact residues” below) [1] is on record?
Its value is “markedly reduced”.

Which “binding to talin (NMR)” value ([1]; 25° C.) does the source give for `CC[C@H](C)[C@H](NC(=O)[C@H](CC(C)C)NC(=O)[C@H](CC(C)C)NC(=O)[C@H](CCCCN)NC(=O)[C@@H](N)CCCCN)C(=O)N[C@H](C(=O)N[C@H](C(=O)N[C@@H](Cc1c[nH]cn1)C(=O)N[C@@H](CC(=O)O)C(=O)N[C@@H](CCCNC(=N)N)C(=O)N[C@@H](CCCCN)C(=O)N[C@@H](CCC(=O)O)C(=O)N[C@@H](Cc1ccccc1)C(=O)N[C@@H](C)C(=O)N[C@@H](CCCCN)C(=O)N[C@@H](Cc1ccccc1)C(=O)N[C@@H](CCC(=O)O)C(=O)N[C@@H](CCC(=O)O)C(=O)N[C@@H](CCC(=O)O)C(=O)N[C@@H](CCCNC(=N)N)C(=O)N[C@@H](C)C(=O)N[C@@H](CCCNC(=N)N)C(=O)N[C@@H](C)C(=O)N[C@@H](CCCCN)C(=O)N[C@@H](Cc1c[nH]c2ccccc12)C(=O)N[C@H](C(=O)N[C@@H](Cc1ccc(OP(=O)(O)O)cc1)C(=O)N[C@@H](CO)C(=O)N1CCC[C@H]1C(=O)N[C@@H](CC(C)C)C(=O)N[C@@H](Cc1c[nH]cn1)C(=O)N[C@@H](Cc1ccc(O)cc1)C(=O)N[C@@H](CO)C(=O)N[C@@H](C)C(=O)N[C@@H](CCCNC(=N)N)C(=O)O)C(C)C)[C@@H](C)CC)[C@@H](C)O` [β3 chimera] (H-KKLLITIHDRKEFAKFEEERARAKWV[pY]SPLHYSAR-OH; N-terminus and C-terminus assumed) here?
The value was “bind to talin and form a tight, highly soluble 1:1 complex”.

Which “perturbation of contact residues” value [1] does the source give for `CC[C@H](C)[C@H](NC(=O)[C@H](CC(C)C)NC(=O)[C@H](CC(C)C)NC(=O)[C@H](CCCCN)NC(=O)[C@@H](N)CCCCN)C(=O)N[C@H](C(=O)N[C@H](C(=O)N[C@@H](Cc1c[nH]cn1)C(=O)N[C@@H](CC(=O)O)C(=O)N[C@@H](CCCNC(=N)N)C(=O)N[C@@H](CCCCN)C(=O)N[C@@H](CCC(=O)O)C(=O)N[C@@H](Cc1ccccc1)C(=O)N[C@@H](C)C(=O)N[C@@H](CCCCN)C(=O)N[C@@H](C)C(=O)N[C@@H](CCC(=O)O)C(=O)N[C@@H](CCC(=O)O)C(=O)N[C@@H](CCC(=O)O)C(=O)N[C@@H](CCCNC(=N)N)C(=O)N[C@@H](C)C(=O)N[C@@H](CCCNC(=N)N)C(=O)N[C@@H](C)C(=O)N[C@@H](CCCCN)C(=O)N[C@@H](Cc1c[nH]c2ccccc12)C(=O)N[C@H](C(=O)N[C@@H](Cc1ccc(OP(=O)(O)O)cc1)C(=O)N[C@@H](CO)C(=O)N1CCC[C@H]1C(=O)N[C@@H](CC(C)C)C(=O)N[C@@H](Cc1c[nH]cn1)C(=O)N[C@@H](Cc1ccc(O)cc1)C(=O)N[C@@H](CO)C(=O)N[C@@H](C)C(=O)N[C@@H](CCCNC(=N)N)C(=O)O)C(C)C)[C@@H](C)CC)[C@@H](C)O` [β3 chimera F730A] (H-KKLLITIHDRKEFAKAEEERARAKWV[pY]SPLHYSAR-OH; N-terminus and C-terminus assumed) here?
Its value is “undetectable”.

Which solubility [2] does the source give for “KLLITIHDRKEFAKFEEERARAKWDTANNPLYKEATSTFTNITYRGT [full-length β3 tail]” here?
Its solubility is “limited solubility”.

B1: F3-Q381V: talin F3 domain mutant Q381V (protein)
chain: GVSFFLVKEKMKGKNKLVPRLLGITKECVMRVDEKTKEVIQEWSLTNIKRWAASPKSFTLDFGDYQDGYYSVVTTEGEQIAQLIAGYIDIILKKKKS
Which “perturbation of contact residues” value [3] does the source give for B1 here?
The value was “markedly reduced”.

B2: F3-L325R: talin F3 domain mutant L325R (protein)
chain: B1 chain with L17R, V73Q
For B2, which “perturbation of contact residues” value [3] is on record?
The value was “undetectable”.

B3: talin (W359A): talin F3 domain mutant W359A, inhibits binding of the MD-site of the β3 tail (protein)
chain: B1 chain with W51A, V73Q
For B3, which “reduction of affinity for the β3 chimeric peptide” value [4] is on record?
The value was about 1000 fold.
